Patent publication US8309577B2, “Quinuclidine compounds as α-7 nicotinic acetylcholine receptor ligands” (Bristol-Myers Squibb Company, priority 2008, dated 2012)
Where two headings read alike, the source gives them in different places.

Target: T1, α-7 nicotinic acetylcholine receptor channel expressed in HEK 293 cells (Rattus norvegicus, UniProt Q05941)
T1 construct: expressed in transfected cells
Test: Ca2+-sensitive fluorescence-based FLIPR assay, α7 nicotinic ACh receptor channel function (agonist)
Format: cell-based
Experimental: I) α7 Nicotinic Acetycholine Receptor Binding. Membranes were prepared for binding using HEK293 cells stably expressing the rat α7 nicotinic acetycholine receptor (rat α7 nAChR). Cells were homogenized at 4° C. in hypotonic lysis buffer consisting of 10 mM Tris (pH 7.4), 5 mM EDTA and protease inhibitors and centrifuged at 32000×g for 20 minutes. The pellet was washed once in membrane wash buffer consisting of 50 mM Tris (pH 7.4), 1 mM EDTA and protease inhibitors and centrifuged at 32000×g for 20 minutes. This pellet was then resuspended in assay buffer consisting 50 mM KH2PO4 (pH 7.4 at 25° C.), 1 mM EDTA, 0.005% Triton-X 100 and 0.1% (v/v) Sigma Protease Inhibitor Cocktail. Aliquots were then frozen in dry ice/ethanol and kept at −80° C. until the day of the assay. II) A Ca^2+-Sensitive, Fluorescence-Based Assay α-7 for Nicotinic Acetylcholine Receptor Channel Function In Mammalian Cells (“FLIPR”). Summary: Lead compounds are evaluated for agonist activity at […], α3β4, […], and α1β1δ1ε sub-types of nicotinic ACh receptor ion channels expressed in mammalian HEK 293 cells. Agonist potency and efficacy values are determined from kinetic fluorescence Ca^2+ influx measurements made using a 384 well FLIPR (Fluorescence Image Plate Reader). […] In this assay, channel expressing HEK cell lines seeded in 384 well assay plates are loaded with a membrane permeant fluorescent Ca^2+ indicator dye, whose 510 nm green emission signal increases in response to elevation of intracellular Ca^2+ concentration. The basal fluorescence from the cells is monitored in real time, followed by the acute addition of test compounds.
Materials and Methods: Reagents: The acetomethoxy (AM) ester of the Ca^2+ indicator dye Fluo-4 was obtained from InVitrogen, (Carlsbad, Calif.). Acetylcholine and all buffer constituents were purchased from Sigma Chemical Company, St. Louis, Mo. G418 and Minimal Essential Medium were purchased from InVitrogen Life Technologies, Carlsbad, Calif. Fetal bovine serum was purchased from (InVitrogen, Carlsbad, Calif.).
Cell Culture: HEK-293 cells were grown in Minimal Essential Medium containing 10% (v/v) fetal bovine serum at 37° C. in a 5% CO2 incubator. HEK-293 cells stably expressing the ion channels were grown in the same medium with the addition of 500 μg/ml G418.
Ca^2+ flux assays of Ca^2+ channels expressed in HEK-293 cells: HEK-293 cells expressing the ion channels of interest were plated in 384 well, black-walled, clear-bottomed, poly-D-lysine coated plates at a density of ˜20,000 cells/well in 20 μl of Minimal Essential Medium containing 10% (v/v) fetal bovine serum and incubated for 2 days at 29° C. in a 5% CO2 incubator. Prior to assay, cells were loaded with the Fluo-4 AM ester. […] Dye loading was allowed to proceed for 90 minutes at room temperature at which time the dye loading solution was removed and replaced with 40 μl/well of Hanks buffer. Cells loaded with dye were loaded onto a FLIPR384 (Molecular Devices, Sunnyvale, Calif.). Fluo-4 dye was excited using the 488 nm line of an argon laser. Emission was filtered using a 540+/−30 nm bandpass filter. For evaluation of the effects of test compounds using the Ca^2+ flux assay, compounds to be tested were provided in assay ready plates. For nicotinic receptor ion channel expressing cells, the assay was initiated by the addition of 20 μl/well of Hanks buffer containing test compounds. For all assays, data were collected at 1 Hz for 10 seconds (baseline), at which time the compound containing stimulus buffers are added, and further measurements collected at 0.33 Hz for 3 min.
Data Analysis: The statistical robustness of the nicotinic receptor Ca^2+ flux assays is determined from blanks and totals wells. […] The raw fluorescence units data files generated on the FLIPR plate reader are automatically exported and processed by in-house data analysis tools.

[1] = FLIPR α7 activity rating (EC50, nM), Table 1, HEK 293 cells, agonist Ca2+ flux
[2] = FLIPR α7 (EC50, nM), Table 1, HEK 293 cells, agonist Ca2+ flux

T1 sequence (Q05941 23-502): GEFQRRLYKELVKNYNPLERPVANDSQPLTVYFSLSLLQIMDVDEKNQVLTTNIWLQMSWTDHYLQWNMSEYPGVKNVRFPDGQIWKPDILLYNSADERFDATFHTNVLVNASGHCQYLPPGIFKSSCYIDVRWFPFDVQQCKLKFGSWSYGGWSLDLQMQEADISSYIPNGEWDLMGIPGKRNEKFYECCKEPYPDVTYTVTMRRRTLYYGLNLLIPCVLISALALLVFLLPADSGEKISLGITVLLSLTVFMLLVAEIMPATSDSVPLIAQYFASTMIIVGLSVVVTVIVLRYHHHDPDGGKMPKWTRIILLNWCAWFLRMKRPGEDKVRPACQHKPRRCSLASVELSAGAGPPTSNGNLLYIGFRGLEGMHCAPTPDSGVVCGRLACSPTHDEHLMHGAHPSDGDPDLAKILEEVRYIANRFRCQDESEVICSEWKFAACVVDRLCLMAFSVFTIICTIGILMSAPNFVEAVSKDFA

SMILES	EC50 [1] [nM]	EC50 [nM]	EC50 [2] [nM]
COc1ccc2nc(NC3=NC[C@@]4(CN5CCC4CC5)O3)cnc2c1 [Example 38, (R)—N-(6-Methoxyquinoxalin-2-yl)-4H-1′-azaspiro[oxazole-5,3′-bicyclo[2.2.2]octan]-2-amine]	< 100		
FC(F)Oc1cnc(NC2=NC[C@@]3(CN4CCC3CC4)O2)nc1 [Example 39, (R)—N-(5-(Difluoromethoxy)pyrimidin-2-yl)-4H-1′-azaspiro[oxazole-5,3′-bicyclo[2.2.2]octan]-2-amine]	< 100		
Cc1cnc(NC2=NC[C@@]3(CN4CCC3CC4)O2)nc1C [Example 40, (R)—N-(4,5-Dimethylpyrimidin-2-yl)-4H-1′-azaspiro[oxazole-5,3′-bicyclo[2.2.2]octan]-2-amine]	< 100		
COc1ccc(-c2cc(NC3=NC[C@@]4(CN5CCC4CC5)O3)ncn2)cc1 [Example 42, (R)—N-(6-(4-Methoxyphenyl)pyrimidin-4-yl)-4H-1′-azaspiro[oxazole-5,3′-bicyclo[2.2.2]octan]-2-amine]	< 100		
COc1ccc(-c2cc(NC3=NC[C@@]4(CN5CCC4CC5)O3)ncn2)cn1 [Example 43, (R)—N-(6-(6-Methoxypyridin-3-yl)pyrimidin-4-yl)-4H-1′-azaspiro[oxazole-5,3′-bicyclo[2.2.2]octan]-2-amine]	< 100		
c1ccc2cc(-c3cc(NC4=NC[C@@]5(CN6CCC5CC6)O4)ncn3)ccc2c1 [Example 44, (R)—N-(6-(Naphthalen-2-yl)pyrimidin-4-yl)-4H-1′-azaspiro[oxazole-5,3′-bicyclo[2.2.2]octan]-2-amine]	100 to 1000		
c1ccc(-c2csc(NC3=NCC4(CN5CCC4CC5)O3)n2)cc1 (centres unmarked) [Example 45]	100 to 1000		
c1cc2nc(NC3=NCC4(CN5CCC4CC5)O3)sc2cc1N1CCOCC1 (centres unmarked) [Example 46]	1000 to 100000	2000	
Fc1ccc2sc(NC3=NCC4(CN5CCC4CC5)O3)nc2c1 (centres unmarked) [Example 47]	< 100		
FC(F)(F)c1ccc2nc(NC3=NCC4(CN5CCC4CC5)O3)sc2c1 (centres unmarked) [Example 48]	100 to 1000		790
FC(F)(F)Oc1ccc2nc(NC3=NCC4(CN5CCC4CC5)O3)sc2c1 (centres unmarked) [Example 49]	1000 to 100000	3330	
Fc1cccc2sc(NC3=NCC4(CN5CCC4CC5)O3)nc12 (centres unmarked) [Example 50]	< 100		
Fc1cc2nc(NC3=NCC4(CN5CCC4CC5)O3)sc2cc1F (centres unmarked) [Example 52]	100 to 1000		325
COc1ccc2sc(NC3=NCC4(CN5CCC4CC5)O3)nc2c1 (centres unmarked) [Example 53]	1000 to 100000		
COc1cccc2sc(NC3=NCC4(CN5CCC4CC5)O3)nc12 (centres unmarked) [Example 54]	1000 to 100000		
COc1cc2nc(NC3=NCC4(CN5CCC4CC5)O3)sc2cc1OC (centres unmarked) [Example 55]	1000 to 100000		
c1ccc(-c2nnc(NC3=NCC4(CN5CCC4CC5)O3)s2)cc1 (centres unmarked) [Example 56]	1000 to 100000		
CN(C)C(=O)c1ccc2nc(NC3=NCC4(CN5CCC4CC5)O3)sc2c1 (centres unmarked) [Example 57]	1000 to 100000	3900	
O=C(c1ccc2nc(NC3=NCC4(CN5CCC4CC5)O3)sc2c1)N1CCCCC1 (centres unmarked) [Example 58]	1000 to 100000		
Fc1ccc(-c2nnc(NC3=NCC4(CN5CCC4CC5)O3)s2)cc1 (centres unmarked) [Example 59]	1000 to 100000	4240	
c1coc(-c2nnc(NC3=NCC4(CN5CCC4CC5)O3)s2)c1 (centres unmarked) [Example 60]	1000 to 100000	2550	
Brc1ccc2nc(NC3=NCC4(CN5CCC4CC5)O3)sc2c1 (centres unmarked) [Example 61]	100 to 1000		
Cc1nc2cc(NC3=NCC4(CN5CCC4CC5)O3)ccc2s1 (centres unmarked) [Example 63]	1000 to 100000	2600	
Clc1ccc2nc(NC3=NCC4(CN5CCC4CC5)O3)nn2c1 (centres unmarked) [Example 66]	100 to 1000		360
Cc1noc(C)c1NC1=NCC2(CN3CCC2CC3)O1 (centres unmarked) [Example 67]	1000 to 100000		
Cc1cnn(C)c1NC1=NCC2(CN3CCC2CC3)O1 (centres unmarked) [Example 68]	1000 to 100000		

SMILES	EC50 [1] [nM]	EC50 [nM]	EC50 [2] [nM]
N#Cc1ccc2nc(NC3=NCC4(CN5CCC4CC5)O3)sc2c1 (centres unmarked) [Example 70]	100 to 1000		
c1nc2cc(NC3=NCC4(CN5CCC4CC5)O3)ccc2s1 (centres unmarked) [Example 71]	1000 to 100000		
c1nc2ccc(NC3=NCC4(CN5CCC4CC5)O3)cc2s1 (centres unmarked) [Example 72]	1000 to 100000		
c1ccc2ncc(NC3=NCC4(CN5CCC4CC5)O3)cc2c1 (centres unmarked) [Example 73]	1000 to 100000	7550	
Cc1ccc2nc(NC3=NCC4(CN5CCC4CC5)O3)nn2c1 (centres unmarked) [Example 74]	< 100		
c1cnc2cc(NC3=NCC4(CN5CCC4CC5)O3)ccc2n1 (centres unmarked) [Example 75]	1000 to 100000		
COc1ccc2nc(NC3=NCC4(CN5CCC4CC5)O3)[nH]c2c1 (centres unmarked) [Example 76]	100 to 1000		
Fc1ccc2nc(NC3=NCC4(CN5CCC4CC5)O3)[nH]c2c1 (centres unmarked) [Example 77]	100 to 1000		355
c1cc2cn[nH]c2cc1NC1=NCC2(CN3CCC2CC3)O1 (centres unmarked) [Example 78]	1000 to 100000		
FC(F)(F)c1ccc2nc(NC3=NCC4(CN5CCC4CC5)O3)nn2c1 (centres unmarked) [Example 83]	100 to 1000		240
c1cnc2ccc(NC3=NCC4(CN5CCC4CC5)O3)cc2c1 (centres unmarked) [Example 85]	1000 to 100000		
O=C1Cc2cc(NC3=NCC4(CN5CCC4CC5)O3)ccc2N1 (centres unmarked) [Example 86]	1000 to 100000		
c1ccn2nc(NC3=NCC4(CN5CCC4CC5)O3)nc2c1 (centres unmarked) [Example 87]	< 100		
c1ccc(-c2csc(NC3=NCC4(CN5CCC4CC5)O3)n2)nc1 (centres unmarked) [Example 88]	100 to 1000		
Cc1cc(C)c2nc(NC3=NCC4(CN5CCC4CC5)O3)sc2c1 (centres unmarked) [Example 89]	< 100		
CC(=O)Nc1ccc2nc(NC3=NCC4(CN5CCC4CC5)O3)sc2c1 (centres unmarked) [Example 90]	100 to 1000		130
CCc1ccc2nc(NC3=NCC4(CN5CCC4CC5)O3)sc2c1 (centres unmarked) [Example 91]	100 to 1000		
Cc1cnc(NC2=NCC3(CN4CCC3CC4)O2)s1 (centres unmarked) [Example 92]	< 100		
Cc1ccn2nc(NC3=NCC4(CN5CCC4CC5)O3)nc2c1 (centres unmarked) [Example 94]	< 100		
Cn1c(-c2ccccc2)cnc1NC1=NCC2(CN3CCC2CC3)O1 (centres unmarked) [Example 96]	1000 to 100000		
Cc1cccn2nc(NC3=NCC4(CN5CCC4CC5)O3)nc12 (centres unmarked) [Example 97]	100 to 1000		
Cc1nc(NC2=NCC3(CN4CCC3CC4)O2)sc1C(=O)N(C)C (centres unmarked) [Example 98]	1000 to 100000		
Cc1ccc(C)c2sc(NC3=NCC4(CN5CCC4CC5)O3)nc12 (centres unmarked) [Example 102]	< 100		
Cc1cc(Cl)c2nc(NC3=NCC4(CN5CCC4CC5)O3)sc2c1 (centres unmarked) [Example 103]	100 to 1000		280
FC(F)Oc1ccc2nc(NC3=NCC4(CN5CCC4CC5)O3)sc2c1 (centres unmarked) [Example 104]	100 to 1000		
